These results are taken from US8143244B2, “Cyclopropyl fused indolobenzazepine HCV NS5B inhibitors” (Bristol-Myers Squibb Company, priority 2009, dated 2012).

In data set [1] the test system is HCV. The following applies: cited from earlier work.
For data set [2] the following is noted: extended dosing of the combination regimens (interferon and ribavirin); cited from earlier work.
The target of data set [3] is T1, HCV NS5B (Hepatitis C virus genotype 1b, UniProt Q9WMX2).
T1 construct: The protein was expressed with an 18 amino acid C-terminal truncation to enhance the solubility; made in house; host or cells: E. coli BL21(DE3)
T1 sequence (Q9WMX2 2420-2992): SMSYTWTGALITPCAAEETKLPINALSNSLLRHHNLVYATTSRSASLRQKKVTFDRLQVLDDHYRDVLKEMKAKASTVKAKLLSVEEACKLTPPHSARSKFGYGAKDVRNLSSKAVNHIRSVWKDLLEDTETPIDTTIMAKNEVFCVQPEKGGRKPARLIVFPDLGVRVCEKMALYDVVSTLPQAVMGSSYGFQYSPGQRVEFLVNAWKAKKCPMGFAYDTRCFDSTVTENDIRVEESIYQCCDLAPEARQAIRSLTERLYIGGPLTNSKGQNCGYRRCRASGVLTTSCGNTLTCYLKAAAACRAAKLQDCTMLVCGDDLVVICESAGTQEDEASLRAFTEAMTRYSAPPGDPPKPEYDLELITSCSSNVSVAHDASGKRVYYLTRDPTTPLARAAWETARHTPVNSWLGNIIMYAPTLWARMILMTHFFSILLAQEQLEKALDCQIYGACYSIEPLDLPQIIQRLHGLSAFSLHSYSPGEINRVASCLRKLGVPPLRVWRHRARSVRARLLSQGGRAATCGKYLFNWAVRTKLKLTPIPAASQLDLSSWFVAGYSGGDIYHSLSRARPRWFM
The experiment in a line: HCV NS5B RdRp enzyme assay. The format is biochemical. The following applies: Table 1; HCV NS5B RdRp genotype 1b. As for the experimental part:
HCV NS5B RdRp cloning, expression, and purification. The cDNA encoding the NS5B protein of HCV, genotype 1b, was cloned into the pET21a expression vector. The protein was expressed with an 18 amino acid C-terminal truncation to enhance the solubility. The E. coli competent cell line BL21(DE3) was used for expression of the protein. Cultures were grown at 37° C. for ˜4 hours until the cultures reached an optical density of 2.0 at 600 nm. The cultures were cooled to 20° C. and induced with 1 mM IPTG. Fresh ampicillin was added to a final concentration of 50 μg/ml and the cells were grown overnight at 20° C.
Cell pellets (3L) were lysed for purification to yield 15-24 mgs of purified NS5B. The lysis buffer consisted of 20 mM Tris-HCl, pH 7.4, 500 mM NaCl, 0.5% triton X-100, 1 mM DTT, 1 mM EDTA, 20% glycerol, 0.5 mg/ml lysozyme, 10 mM MgCl2, 15 ug/ml deoxyribonuclease I, and Complete TM protease inhibitor tablets (Roche). After addition of the lysis buffer, frozen cell pellets were resuspended using a tissue homogenizer. To reduce the viscosity of the sample, aliquots of the lysate were sonicated on ice using a microtip attached to a Branson sonicator. The sonicated lysate was centrifuged at 100,000×g for 1 hr at 4° C. and filtered through a 0.2 μm filter unit (Corning).
The protein was purified using three sequential chromatography steps: Heparin sepharose CL-6B, polyU sepharose 4B, and Hitrap SP sepharose (Pharmacia). The chromatography buffers were identical to the lysis buffer but contained no lysozyme, deoxyribonuclease I, MgCl2 or protease inhibitor and the NaCl concentration of the buffer was adjusted according to the requirements for charging the protein onto the column. Each column was eluted with a NaCl gradient which varied in length from 5-50 column volumes depending on the column type. After the final chromatography step, the resulting purity of the enzyme is >90% based on SDS-PAGE analysis. The enzyme was aliquoted and stored at −80° C.
Standard HCV NS5B RdRp enzyme assay. HCV RdRp genotype 1b assays were run in a final volume of 60 μl in 96 well plates (Costar 3912). The assay buffer is composed of 20 mM Hepes, pH 7.5, 2.5 mM KCl, 2.5 mM MgCl2, 1 mM DTT, 1.6 U RNAse inhibitor (Promega N2515), 0.1 mg/ml BSA (Promega R3961), and 2% glycerol. All compounds were serially diluted (3-fold) in DMSO and diluted further in water such that the final concentration of DMSO in the assay was 2%. HCV RdRp genotype 1b enzyme was used at a final concentration of 28 nM. A polyA template was used at 6 nM, and a biotinylated oligo-dT12 primer was used at 180 nM final concentration. Template was obtained commercially (Amersham 27-4110). Biotinylated primer was prepared by Sigma Genosys. 3H-UTP was used at 0.6 μCi (0.29 μM total UTP). Reactions were initiated by the addition of enzyme, incubated at 30° C. for 60 min, and stopped by adding 25 μl of 50 mM EDTA containing SPA beads (4 μg/μl, Amersham RPNQ 0007). Plates were read on a Packard Top Count NXT after >1 hr incubation at room temperature.
Modified HCV NS5B RdRp enzyme assay. A modified enzyme assay was performed essentially as described for the standard enzyme assay except for the following: The biotinylated oligo dT12 primer was precaptured on streptavidin-coated SPA beads by mixing primer and beads in assay buffer and incubating at room temperature for one hour. Unbound primer was removed after centrifugation. The primer-bound beads were resuspended in 20 mM Hepes buffer, pH 7.5 and used in the assay at final concentrations of 20 nM primer and 0.67 μg/μl beads. Order of addition in the assay: enzyme (14 nM) was added to diluted compound followed by the addition of a mixture of template (0.2 nM), 3H-UTP (0.6 μCi, 0.29 μM), and primer-bound beads, to initiate the reaction; concentrations given are final. Reactions were allowed to proceed for 4 hours at 30° C.
IC50 values for compounds were determined using seven different [I]. […]

Data set [4] concerns HCV replicon genotype 1a. Briefly: HCV Replicon Luciferase Reporter Assay (LE Assay), genotype 1a replicon. The following applies: Hepatitis C virus, read-out: LE NeoLuc EC50. The class given is cell-based, HCV genotype 1a. The procedure: The HCV replicon luciferase assay was developed to monitor the inhibitory effects of compounds described in the disclosure on HCV viral replication. Utilization of a replicon luciferase reporter assay was first described by Krieger et al (Krieger N, Lohmann V, and Bartenschlager R, J. Virol. 75(10):4614-4624 (2001)). HUH-7 cells, constitutively expressing the HCV replicon, were grown in Dulbeccors Modified Eagle Media (DMEM) (Gibco-BRL) containing 10% Fetal calf serum (FCS) (Sigma) and 1 mg/ml G418 (Gibco-BRL). Compounds were serially diluted 3 folds in DMSO for a twenty-point titration and subsequently transferred to sterile 384-well tissue-culture treated plates (Coming cat #3571). The plates were then seeded with 50 μl of cells at a density of 3.0×10^3 cells/well in DMEM containing 4% FCS (final DMSO concentration at 0.5%). After 3 days incubation at 37° C., cells were analyzed for Renilla Luciferase activity using the EnduRen as substrate (Promega cat #E6485). The EnduRen substrate was diluted in DMEM and then added to the plates to a final concentration of 7.5 μM. The plates were incubated for 2 hrs at 37° C. and then read immediately for 30 seconds with Viewlux Imager (PerkinElmer) using a luminescence program. To assess cytotoxicity of compounds, CC50 values were generated by multiplexing the EnduRen-containing plates with Cell Titer-Blue (Promega, cat #G8082). 3 μl of Cell-Titer Blue was added to each well and incubated for 8 hrs at 37° C. The fluorescence signal from each well was read, with an excitation wavelength at 525/10 nm and an emission wavelength of 598/10 nm, using the Viewlux Imager.
Background: Replicon systems follow genome replication, usually without infectious particles.

In the case of alpha-interferon and ribavirin, the “sustained efficacy in patients” value in data set [1] (HCV therapy) is 40 % of patients.
As for `CNC(=O)c1c(-c2ccc(F)cc2)oc2cc(N(CCO)S(C)(=O)=O)c(C3CC3)cc12` [HCV-796], in data set [1] (single agent: transient decrease then rebound, more robust drop combined with interferon and ribavirin), the “HCV RNA levels in patients” value was “showed an ability to reduce HCV RNA levels in patients”. Moreover, the hepatic toxicity result in data set [2] is on record as “hepatic toxicity observed”.
Turning to `COc1ccc2c(c1)[C@@H]1C[C@]1(C(=O)N1CC34CCC3(CN(C(=O)N3CCOCC3)C4)C1)Cn1c-2c(C2CCCCC2)c2ccc(C(=O)NS(=O)(=O)N(C)C)cc21` (stereo partly drawn), the IC50 in data set [3] lay within 1.9 to 500 nM. The EC50 in data set [4] was in the range of 1.9 to 500 nM.
In data set [3], `COc1ccc2c(c1)[C@@H]1C[C@]1(C(=O)N1CC34CCC3(CN(CC(F)(F)F)C4)C1)Cn1c-2c(C2CCCCC2)c2ccc(C(=O)NS(=O)(=O)C(C)C)cc21` (stereo partly drawn) came in with an IC50 of 1.9 to 500 nM. Besides, in data set [4], the 50% effective concentration (EC50) lay within 1.9 to 500 nM.
`COc1ccc2c(c1)[C@@H]1C[C@]1(C(=O)N1CC34COCC3(CN(CC(F)(F)F)C4)C1)Cn1c-2c(C2CCCCC2)c2ccc(C(=O)NS(=O)(=O)C(C)C)cc21` (stereo partly drawn): the concentration for half-maximal inhibition (IC50) in data set [3] lay in the range of 1.9 to 500 nM. The half-maximal effective concentration (EC50) in data set [4] lay within 1.9 to 500 nM.

What is called IC50 is the concentration needed to halve the response being measured. The low end stands for inhibition by little substance, the high end for a need for much substance. In general, EC50 refers to the concentration giving half of the maximal effect.
